Data: patent US11366102B2, “Spectographic metabolite-signature for identifying a subject's susceptibility to drugs” (Olaris, Inc., priority 2018, dated 2022)

Columns and labels:
[1] = biological target: CYP2C19 (Homo sapiens, UniProt P33261); conditions: off-target effect; cited from earlier work
[2] = biological target: T1, CYP2A6 (Homo sapiens, UniProt P11509); conditions: off-target effect; cited from earlier work
T1 sequence (P11509 1-494): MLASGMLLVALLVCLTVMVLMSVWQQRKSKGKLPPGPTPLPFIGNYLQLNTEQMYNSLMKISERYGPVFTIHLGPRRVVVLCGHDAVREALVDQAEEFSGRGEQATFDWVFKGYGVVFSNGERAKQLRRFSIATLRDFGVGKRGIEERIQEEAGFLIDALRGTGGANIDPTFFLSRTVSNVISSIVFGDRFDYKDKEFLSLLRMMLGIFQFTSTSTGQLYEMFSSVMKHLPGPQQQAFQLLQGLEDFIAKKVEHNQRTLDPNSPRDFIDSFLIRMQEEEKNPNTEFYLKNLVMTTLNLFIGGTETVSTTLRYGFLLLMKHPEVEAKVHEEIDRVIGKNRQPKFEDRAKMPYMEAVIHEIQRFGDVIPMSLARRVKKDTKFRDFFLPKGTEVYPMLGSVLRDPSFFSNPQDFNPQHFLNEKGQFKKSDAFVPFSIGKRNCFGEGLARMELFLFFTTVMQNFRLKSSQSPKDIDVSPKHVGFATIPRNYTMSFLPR

[3] = test system: adenoid cystic carcinomas of the salivary gland; conditions: despite increased expression of c-kit; cited from earlier work
[4] = test system: ER+/HER2− metastatic BC; assay: Retrospective study of metastatic BC patients treated with CDK4/6 inhibitors, classified R or NR by change in sum of diameters of target tumors after 6 months, with overall survival; assay type: in vivo, human; conditions: for Patients within the NR group / Number of non-responders (NR): at least a 20% increase in the sum of diameters of target tumors after 6 months; for Patients within the NR group: 10 NR of 24 patients; for Number of non-responders (NR) / Number of responders (R): samples separated by inhibitor; for Number of responders (R): at least a 30% decrease in the sum of diameters of target tumors after 6 months of treatment
Source text: Here we describe a retrospective study analyzing plasma-based metabolites from a baseline (BL) sample and after 2-months (2M) of treatment of 24 women with ER+/HER2-− metastatic BC treated with CDK4/6 inhibitors, palbociclib or ribociclib.

Chain of CYP2C19 (P33261 whole entry): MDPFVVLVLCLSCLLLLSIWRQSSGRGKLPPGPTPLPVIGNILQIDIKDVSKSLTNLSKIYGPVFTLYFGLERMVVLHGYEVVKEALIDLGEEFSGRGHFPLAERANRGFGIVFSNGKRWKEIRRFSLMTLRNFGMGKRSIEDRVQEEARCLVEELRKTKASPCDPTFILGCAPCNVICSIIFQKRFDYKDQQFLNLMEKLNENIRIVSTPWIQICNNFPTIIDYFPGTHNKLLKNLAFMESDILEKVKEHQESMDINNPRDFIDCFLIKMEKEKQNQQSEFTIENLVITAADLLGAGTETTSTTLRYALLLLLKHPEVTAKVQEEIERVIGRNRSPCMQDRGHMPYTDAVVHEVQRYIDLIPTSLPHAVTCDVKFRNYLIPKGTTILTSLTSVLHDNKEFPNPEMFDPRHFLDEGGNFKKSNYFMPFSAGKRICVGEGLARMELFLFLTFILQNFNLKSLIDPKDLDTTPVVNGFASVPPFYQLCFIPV

| SMILES | Inhibition of CYP2C19 [1] | Inhibition of CYP2A6 [2] | Effect on adenoid cystic carcinomas of the salivary gland [3] | Patients within the NR group [4] | Number of non-responders (NR) [4] | Number of responders (R) [4] |
| --- | --- | --- | --- | --- | --- | --- |
| N#Cc1ccc(C(c2ccc(C#N)cc2)n2cncn2)cc1 [letrozole] | inhibits | inhibits |  |  |  |  |
| Cc1ccc(NC(=O)c2ccc(CN3CCN(C)CC3)cc2)cc1Nc1nccc(-c2cccnc2)n1 [imatinib] |  |  | no effect |  |  |  |
| CN(C)C(=O)c1cc2cnc(Nc3ccc(N4CCNCC4)cn3)nc2n1C1CCCC1 [ribociclib] |  |  |  | 7 patients | 6 | 8 |
| CC(=O)c1c(C)c2cnc(Nc3ccc(N4CCNCC4)cn3)nc2n(C2CCCC2)c1=O [palbociclib] |  |  |  | 3 patients | 3 | 7 |
